Results reported in patent US4396550A, “Dibenz [b,e] oxepin derivatives” (Kyowa Hakko Kogyo Co., Ltd., priority 1980, dated 1983).

Assays:
[1] = system: blood platelets (platelet-rich plasma); test: Test for the inhibition of platelet aggregation (collagen-induced, platelet-rich plasma); type: cell-based, male white rabbits; settings: Oryctolagus cuniculus, Platelet, 0.05 h; depressing ratio of 50% of collagen-induced aggregation; compound 3 minutes before; read-out: Antiplatelet aggregation activity: MED
In short: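 Citrated carotid blood from male white rabbits (2–2.5 kg) spun at 1,000 rpm for 15 min to give PRP. Compound added 3 min before collagen, dosed to give 50% aggregation in the presence of 100 γ/ml aspirin; aggregation followed by aggregometer, activity scored as 50% depression versus collagen alone.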

[2] = system: isolated ileum of guinea-pig; test: Test for antihistaminergic effects on the isolated ileum of guinea-pig (histamine contraction, in vitro); design: species or system guinea-pig (male Hartly-strain); settings: Cavia porcellus, 0.05 h; depressing ratio of 80% or more of histamine contraction; read-out: Antihistaminergic activity: MED
In short: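 Ileum segments from male Hartley guinea-pigs (~250 g) suspended in Tyrode's solution at 32±1 °C, contractions recorded on kymograph. Test compound given 3 min before agonist challenge with 0.1 ml histamine at 5×10^-3 g/l.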

[3] = system: isolated ileum of guinea-pig; test: Test for anticholinergic effects on the isolated ileum of guinea-pig (acetylcholine contraction, in vitro); design: species or system guinea-pig (male Hartly-strain); settings: Cavia porcellus, 0.05 h; depressing ratio of 80% or more of acetylcholine contraction; compound 3 minutes before; read-out: Anticholinergic activity: MED (minimum effective dose)
In short: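 Ileum segments from male Hartley guinea-pigs (~250 g), 2-3 cm, in Tyrode's at 32±1° C, aerated. Contraction evoked by acetylcholine (0.1 ml of 10^-3 g/ml), recorded by kymograph, before and 3 minutes after test compound addition.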

male dd-strain rats = test: Acute toxicity test (minimum lethal dose); type: in vivo; settings: mortality for 7 days
Experimental: Groups of male dd-strain rats (each group consisting of five rats) weighing 20±1 g were used. The compounds of the present invention were administered orally (po: 0.3 mg/g) or intraperitoneally (ip: 0.1 mg/g). The MLD (minimum lethal dose) was calculated from the mortality for 7 days after the administration to obtain the results given in Table 1.

Antiasthmatic activity = type: in vivo; settings: po; read-out: Antiasthmatic activity: MED

| SMILES | minimal effective concentration [1] [µg/mL] | minimal effective concentration [2] [µg/mL] | minimal effective concentration [3] [µg/mL] | Acute toxicity: MLD (minimum lethal dose) (male dd-strain rats; ip) [mg/kg] | Acute toxicity: MLD (minimum lethal dose) (male dd-strain rats; po) [mg/kg] | minimal effective dose (Antiasthmatic activity) [mg/kg] |
| --- | --- | --- | --- | --- | --- | --- |
| CN(C)CCNC1c2ccccc2COc2ccc(F)cc21 (stereo not drawn) [Compound 18, 2-fluoro-11-{2-(dimethylamino)ethyl}amino-6,11-dihydrodibenz[b,e]oxepin] | 50 | 0.3 | 0.3 | > 100 | > 300 | 10 |
| CCN1CCCC1CNC1c2ccccc2COc2ccc(C)cc21 (stereo not drawn) [Compound 28, 2-methyl-11-{(1-ethyl-2-pyrrolidinyl)methyl}-amino-6,11-dihydrodibenz[b,e]oxepin] | 50 | 1 | 1 | 100 | 300 | 25 |
| OCCN1CCN(C2c3ccccc3COc3ccc(F)cc32)CC1 (stereo not drawn) [Compound 39, 2-fluoro-11-{4-(2-hydroxyethyl)-1-piperazinyl}-6,11-dihydrodibenz[b,e]oxepin] | 50 | 10 | 1 | 100 | > 300 | 100 |
| CN1CCN(C2c3ccccc3COc3ccc(F)cc32)CC1 (stereo not drawn) [Compound 69, 2-fluoro-11-(4-methyl-1-piperazinyl)-6,11-dihydrodibenz[b,e]oxepin] | 100 | 10 | 3 | > 100 | 100 | 100 |
| CCN(CC)CCNC1c2ccccc2COc2ccc(OC)cc21 (stereo not drawn) [Compound 13, 2-methoxy-11-{2-(diethylamino)ethyl}amino-6,11-dihydrodibenz[b,e]oxepin] | 20 | 0.3 | 1 | > 100 | > 300 | 100 |
| Cc1ccc2c(c1)C(NC1CN3CCC1CC3)c1ccccc1CO2 (stereo not drawn) [Compound 20, 2-methyl-11-(3-quinuclidinyl)amino-6,11-dihydrodibenz[b,e]oxepin] | 100 | 0.1 | 1 | 50 | 300 | 50 |
| CCC(C)c1ccc2c(c1)C(NC1CN3CCC1CC3)c1ccccc1CO2 (stereo not drawn) [Compound 51, 2-(1-methyl)propyl-11-(3-quinuclidinyl)amino-6,11-dihydrodibenz[b,e]oxepin] | 50 | 0.3 | 1 | 100 | > 300 | 50 |
| Cc1ccc2c(c1)C(NCCN1CCCC1)c1ccccc1CO2 (stereo not drawn) [Compound 58, 2-methyl-11-{2-(1-pyrrolidinyl)ethyl}amino-6,11-dihydrodibenz[b,e]oxepin] | 50 | 0.1 | 3 | > 100 | 300 | 25 |
| Fc1ccc2c(c1)C(NC1CN3CCC1CC3)c1ccccc1CO2 (stereo not drawn) [Compound 22, 2-fluoro-11-(3-quinuclidinyl)amino-6,11-dihydrodibenz[b,e]oxepin] | 100 | 0.3 | 0.3 | 100 | 300 | 50 |
